ChEMBL document CHEMBL2380247, “Synthesis and biological evaluation of novel aliphatic amido-quaternary ammonium salts for anticancer chemotherapy: part II” (2013)
Active and inactive are the calls of the source. The calls are words filed in the database; no cut-off is given here.

Tests used:
[1] = system: ACHN; assay: Antiproliferative activity against human ACHN cells at 0.3 uM by SRB assay; assay type: functional
[2] = system: HCT-15; assay: Antiproliferative activity against human HCT15 cells at 0.3 uM by SRB assay; assay type: functional
[3] = system: PC-3; assay: Antiproliferative activity against human PC3 cells by SRB assay; assay type: functional
[4] = system: NUGC-3; assay: Antiproliferative activity against human NUGC3 cells at 10 uM by SRB assay; assay type: functional
[5] = molecular target: Rho-related GTP-binding protein RhoB (Homo sapiens) (UniProt P62745); assay: Transactivation of RhoB in human HeLa cells by luciferase reporter assay; assay type: cell-based
[6] = system: NCI-H23; assay: Antiproliferative activity against human NCI-H23 cells at 10 uM by SRB assay; assay type: functional
[7] = system: PC-3; assay: Antiproliferative activity against human PC3 cells at 0.1 uM by SRB assay; assay type: functional
[8] = system: HCT-15; assay: Antiproliferative activity against human HCT15 cells at 3 uM by SRB assay; assay type: functional
[9] = system: HCT-15; assay: Antiproliferative activity against human HCT15 cells at 0.1 uM by SRB assay; assay type: functional
[10] = system: NCI-H23; assay: Antiproliferative activity against human NCI-H23 cells at 1 uM by SRB assay; assay type: functional
[11] = system: MDA-MB-231; assay: Antiproliferative activity against human MDA-MB-231 cells at 3 uM by SRB assay; assay type: functional
[12] = system: HCT-15; assay: Antiproliferative activity against human HCT15 cells at 1 uM by SRB assay; assay type: functional
[13] = system: NCI-H23; assay: Antiproliferative activity against human NCI-H23 cells by SRB assay; assay type: functional
[14] = system: NCI-H23; assay: Antiproliferative activity against human NCI-H23 cells at 0.1 uM by SRB assay; assay type: functional
[15] = system: MDA-MB-231; assay: Antiproliferative activity against human MDA-MB-231 cells at 10 uM by SRB assay; assay type: functional
[16] = system: PC-3; assay: Antiproliferative activity against human PC3 cells at 0.3 uM by SRB assay; assay type: functional
[17] = system: PC-3; assay: Antiproliferative activity against human PC3 cells at 3 uM by SRB assay; assay type: functional
[18] = system: ACHN; assay: Antiproliferative activity against human ACHN cells at 10 uM by SRB assay; assay type: functional
[19] = system: MDA-MB-231; assay: Antiproliferative activity against human MDA-MB-231 cells at 1 uM by SRB assay; assay type: functional
[20] = system: NCI-H23; assay: Antiproliferative activity against human NCI-H23 cells at 3 uM by SRB assay; assay type: functional
[21] = system: ACHN; assay: Antiproliferative activity against human ACHN cells at 0.1 uM by SRB assay; assay type: functional
[22] = system: MDA-MB-231; assay: Antiproliferative activity against human MDA-MB-231 cells at 0.1 uM by SRB assay; assay type: functional
[23] = system: MDA-MB-231; assay: Antiproliferative activity against human MDA-MB-231 cells by SRB assay; assay type: functional
[24] = system: ACHN; assay: Antiproliferative activity against human ACHN cells at 3 uM by SRB assay; assay type: functional
[25] = system: NUGC-3; assay: Antiproliferative activity against human NUGC3 cells at 0.3 uM by SRB assay; assay type: functional
[26] = system: NUGC-3; assay: Antiproliferative activity against human NUGC3 cells at 1 uM by SRB assay; assay type: functional
[27] = system: ACHN; assay: Antiproliferative activity against human ACHN cells by SRB assay; assay type: functional
[28] = system: NCI-H23; assay: Antiproliferative activity against human NCI-H23 cells at 0.3 uM by SRB assay; assay type: functional
[29] = system: HCT-15; assay: Antiproliferative activity against human HCT15 cells at 10 uM by SRB assay; assay type: functional
[30] = system: NUGC-3; assay: Antiproliferative activity against human NUGC3 cells at 0.1 uM by SRB assay; assay type: functional
[31] = system: PC-3; assay: Antiproliferative activity against human PC3 cells at 1 uM by SRB assay; assay type: functional
[32] = system: MDA-MB-231; assay: Antiproliferative activity against human MDA-MB-231 cells at 0.3 uM by SRB assay; assay type: functional
[33] = system: NUGC-3; assay: Antiproliferative activity against human NUGC3 cells at 3 uM by SRB assay; assay type: functional
[34] = system: ACHN; assay: Antiproliferative activity against human ACHN cells at 1 uM by SRB assay; assay type: functional
[35] = system: HCT-15; assay: Antiproliferative activity against human HCT15 cells by SRB assay; assay type: functional
[36] = system: PC-3; assay: Antiproliferative activity against human PC3 cells at 10 uM by SRB assay; assay type: functional
[37] = system: NUGC-3; assay: Antiproliferative activity against human NUGC3 cells by SRB assay; assay type: functional

Sequence of Rho-related GTP-binding protein RhoB (Homo sapiens) (P62745 whole entry): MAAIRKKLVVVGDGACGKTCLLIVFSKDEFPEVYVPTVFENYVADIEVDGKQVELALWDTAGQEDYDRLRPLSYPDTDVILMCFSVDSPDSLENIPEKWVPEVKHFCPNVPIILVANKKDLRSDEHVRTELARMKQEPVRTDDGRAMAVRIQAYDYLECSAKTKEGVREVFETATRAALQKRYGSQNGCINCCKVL

SMILES	growth, % of control at 0.3 µM [1] [%]	growth, % of control at 0.3 µM [2] [%]	GI50 [3] [nM]	growth, % of control at 10 µM [4] [%]	Activity [5]	growth, % of control at 10 µM [6] [%]	growth, % of control at 0.1 µM [7] [%]	growth, % of control at 3 µM [8] [%]	growth, % of control at 0.1 µM [9] [%]	growth, % of control at 1 µM [10] [%]	growth, % of control at 3 µM [11] [%]	growth, % of control at 1 µM [12] [%]	GI50 [13] [nM]	growth, % of control at 0.1 µM [14] [%]	growth, % of control at 10 µM [15] [%]	growth, % of control at 0.3 µM [16] [%]	growth, % of control at 3 µM [17] [%]	growth, % of control at 10 µM [18] [%]	growth, % of control at 1 µM [19] [%]	growth, % of control at 3 µM [20] [%]	other results
CCCCCCCCCCCCCCCC(=O)NCCC[N+](C)(C)C	94.4	104	600	20.1	Active	18.3	90.6	71.1	110	93	61.6	97.4	2150	106	25.1	85.2	19.1	42.5	96.6	67.8	growth, % of control at 0.1 µM [21]: 97%; growth, % of control at 0.1 µM [22]: 101%; GI50 [23]: 2180 nM; growth, % of control at 3 µM [24]: 66%; growth, % of control at 0.3 µM [25]: 109%; growth, % of control at 1 µM [26]: 72.8%; GI50 [27]: 3360 nM; growth, % of control at 0.3 µM [28]: 104%; growth, % of control at 10 µM [29]: 26.1%; growth, % of control at 0.1 µM [30]: 112%; growth, % of control at 1 µM [31]: 62.6%; growth, % of control at 0.3 µM [32]: 98.3%; growth, % of control at 3 µM [33]: 34.9%; growth, % of control at 1 µM [34]: 91.8%; GI50 [35]: 2560 nM; growth, % of control at 10 µM [36]: -1.77%; GI50 [37]: 1070 nM
CCCCCCCCCCCCCC(=O)N(C)CCC[N+](C)(C)C	82.2	90.9	320	13.7	Active	-5.73	86.7	62	88	61.8	54.6	82.6	560	97.3	23.8	87.1	-1.93	21.2	88.9	8.98	growth, % of control at 0.1 µM [21]: 81.1%; growth, % of control at 0.1 µM [22]: 95.2%; GI50 [23]: 1780 nM; growth, % of control at 3 µM [24]: 41.2%; growth, % of control at 0.3 µM [25]: 70.3%; growth, % of control at 1 µM [26]: 35.7%; GI50 [27]: 1010 nM; growth, % of control at 0.3 µM [28]: 99.1%; growth, % of control at 10 µM [29]: 16.5%; growth, % of control at 0.1 µM [30]: 85.1%; growth, % of control at 1 µM [31]: 32.1%; growth, % of control at 0.3 µM [32]: 98.7%; growth, % of control at 3 µM [33]: 23.3%; growth, % of control at 1 µM [34]: 72.4%; GI50 [35]: 1720 nM; growth, % of control at 10 µM [36]: -4.36%; GI50 [37]: 320 nM
CCCCCCCCCCCCCCCC(=O)N(C)CCC[N+](C)(C)C	86.8	99.1	490	-38.4	Active	-14.1	106	54	98.7	76.5	46.6	82.7	960	98.7	21.7	108	0.07	1.49	76.6	33.7	growth, % of control at 0.1 µM [21]: 91.6%; growth, % of control at 0.1 µM [22]: 97.7%; GI50 [23]: 1420 nM; growth, % of control at 3 µM [24]: 39.5%; growth, % of control at 0.3 µM [25]: 68%; growth, % of control at 1 µM [26]: 4.68%; GI50 [27]: 760 nM; growth, % of control at 0.3 µM [28]: 99.2%; growth, % of control at 10 µM [29]: 29.6%; growth, % of control at 0.1 µM [30]: 97%; growth, % of control at 1 µM [31]: 47.2%; growth, % of control at 0.3 µM [32]: 96.1%; growth, % of control at 3 µM [33]: -31.9%; growth, % of control at 1 µM [34]: 58.9%; GI50 [35]: 1980 nM; growth, % of control at 10 µM [36]: -16.5%; GI50 [37]: 190 nM
